Experimental data published in US9765019B2, “Small-molecule-targeted protein degradation” (Brandeis University, priority 2011, dated 2017).
Like-named read-outs stand apart in the source and are kept apart here.

Key:
HeLa cells = experiment: Cytotoxicity and apoptosis (trypan blue staining, PARP cleavage); format: cell-based; conditions: concentrations up to 135 μM
eDHFR-HA = molecular target: T1, eDHFR-HA (Escherichia coli, UniProt P0ABQ4); experiment: Degradation by purified 20S proteasome / immunoproteasome; format: biochemical
T1 construct: (His)6 (N); made in house; host or cells: Escherichia coli (pET28a vector)
Protocol: The protein was pre-inhibited with 1 mM inhibitor by incubation at 30° C. for 20 minutes. This mixture was added to the assay mixture (in 50 mM Hepes, pH 8.0, 250 mM NaCl, 1 mM DTT) such that the final concentration of protein was 90 nM. The concentration of proteasome was 6 nM. The temperature of assay was 37° C. Total assay volume was 55 μL. 15 μL aliquots were extracted at various time points and immediately placed into 6 μL of 5× loading buffer and boiled for 5 minutes. These were stored at −80° C. after flash freezing on dry ice and thawed by boiling for 2 minutes. The data was analyzed by Western blot as described in Example 2.

[1] = molecular target: T2, Escherichia coli dihydrofolate reductase (Escherichia coli, UniProt P0ABQ4); experiment: Degradation of pre-inhibited eDHFR in cell lysates (Western blot); format: biochemical
T2 construct: (His)6 (N); made in house; host or cells: Escherichia coli (pET28a vector)

eDHFR = eDHFR (Escherichia coli, UniProt P0ABQ4); format: binding; conditions: data not shown
eDHFR-HA-GFP = eDHFR-HA-GFP (Escherichia coli, UniProt P0ABQ4)
Protocol: FIG. 6 depicts degradation of eDHFR-HA in cell lysates and degradation of eDHFR fusion proteins in HeLa cells. (A) Degradation of eDHFR in HeLa cells lysates; (B) quantification of panel (A); (C) Global protein stability (GPS) assay. Cells co-express red fluorescent protein (RFP) and DHFR-HA-GFP from a bicistronic construct. Red and green fluorescence was measured by flow cytometry.
Protein degradation in whole cells was also assessed. eDHFR-HA-GFP was co-expressed with Discosoma sp. red fluorescent protein (RFP) in a bicistronic construct under control of a CMV promoter, with DHFR-HA-GFP translation occurring at the internal ribosome binding site. Thus a single mRNA is responsible for the production of both RFP and DHFR-HA-GFP, so that similar ratios of both proteins should be produced in all transfected cells. Changes in the relative intensities of red and green fluorescence are measured by flow cytometry, providing a facile and quantitative measure of the degradation of DHFR-HA-GFP in living cells and real time.
Cells were grown to 90% confluence in Dulbecco's Modified Minimal Essential Medium supplemented with 10% fetal bovine serum, 1×L-glutamine with no antibiotic in a 6 well plate. At this point the cells were serum starved, and then transfected using […] plasmid (expression driven by the cytomegalovirus promoter; gene coding for enhanced green fluorescent protein fused to the C-terminus of E. coli dihydrofolate reductase): 2 μL Transfectin™ (Biorad) per well. 48 hours after transfection, media was once again aspirated, and fresh serum free media was added. Cycloheximide (final concentration 100 μg/mL) was then added to the cells and after 5 minutes, 30 μM inhibitor was added. At each time point (45 minutes), media was aspirated, cells were trypsinized, centrifuged and washed three times with phosphate buffered saline. Cell pellets were flash frozen in dry ice, and then stored indefinitely at −80° C. The cells were thawed on ice, and then resuspended in lysis buffer (150 mM sucrose, 200 mM sodium phosphate, 43 mM MgCl2, pH 7.8, 0.1% triton X-100). Cells were lysed by two freeze/thaw cycles (−80° C. for 5 minutes, then 4° C. for 10 minutes). Lysate concentrations were normalized by dilution with lysis buffer such that they gave the same A595 when diluted into Bradford assay dye (Biorad).

[2] = system: eDHFR-KRas D12 fusion protein; format: cell-based; conditions: NIH3T3 cells, 16 μM
Protocol: FIG. 3 depicts the degradation of eDHFR-KRas D12 fusion protein. MSCV retrovirus was used to insert eDHFR-KRas D12 fusion gene into NIH3T3 cells. These cells were plated in a 48-well plate and treated with 16 μM of either trimethoprim or trimethoprim-Boc3Arg, and then harvested at the times indicated. eDHFR-Ras contained a FLAG tag at the amino terminus and was measured through western blot with anti-FLAG antibody. Tubulin was used as a loading control.

Which “Cytotoxicity / induction of apoptosis” value (HeLa cells) does the source give for `COc1cc(Cc2cnc(N)nc2N)cc(OC)c1OCC(=O)NCCCCCCNC(=O)C(CCCNC(=NC(=O)OC(C)(C)C)NC(=O)OC(C)(C)C)NC(=O)OC(C)(C)C` (stereo not drawn) [TMP-Boc3Arg, N-(6-(2-(4-((2,4-diaminopyrimidin-5-yl)methyl)-2,6-dimethoxyphenoxy)acetamido)hexyl)-5-(2,3-di-t-butoxycarbonylguanidino)-2-(t-butoxycarbonylamino)pentanamide] here?
Its value is “did not display cytotoxicity or induce apoptosis”.

And the “Degradation using purified immune proteasome” value (eDHFR-HA; 20S immunoproteasome)?
The value was “promotes the degradation”.

What about the “Degradation using purified 20S proteasome” value (eDHFR-HA; purified 20S proteasome, no ATP added) of the same molecule?
The value was “promotes the degradation”.

What about the “Degradation of target protein (eDHFR fused to GFP)” value ([1]; FIG. 6, noncovalent ligand) of the same molecule?
Its value is “induced the degradation”.

What about the “Degradation of eDHFR in cell lysate assays” value ([1]; cell lysate) of the same molecule?
Its value is “promotes the degradation”.

And the “increase of eDHFR melting point / stability (relative to TMP)” value (eDHFR)?
The value was “smaller increase”.

What about the “decrease of eDHFR-HA-GFP” value (eDHFR-HA-GFP; 80 μM, 5 hours, GPS assay, anti-HA and anti-GFP blotting) of the same molecule?
Its value is 40%.

What about the “Change in GFP:RFP ratio as function of time” value (eDHFR-HA-GFP; GPS assay, transfected HeLa cells, flow cytometry) of the same molecule?
Its value is “time-dependent decrease”.

And the Cell permeability (eDHFR-HA-GFP; inferred from whole-cell degradation)?
Its Cell permeability is “cell permeable”.

And the “Degradation of eDHFR-HA-GFP in whole cells” value (eDHFR-HA-GFP; whole cell assays)?
Its value is “promotes the degradation”.

And the “Degradation of K-Ras-eDHFR fusion protein” value [2]?
The value was “can induce the degradation”.

What about the “Degradation of K-Ras-eDHFR fusion protein” value ([2]; listed as trimethoprim-tag) of the same molecule?
The value was “is degraded”.
